Laboratory results reported in patent publication US11479604B2, “Immunomodulatory peptides and methods for modulating the immune system in a subject” (Recepta Biopharma S.A., priority 2017, dated 2022).

Tests used:
[1] = tested on: LPS stimulated DCs characterized by CD11c+ MHC-II+; assay: Co-stimulatory markers of LPS stimulated murine bone-marrow DCs; format: cell-based
Text: Rb9 immunomodulation of murine bone-marrow dendritic cells (DCs) was also examined focusing on co-stimulatory markers.

[2] = tested on: T lymphocytes of lungs, spleen and lymph nodes; assay: Flow cytometry of Treg, T-CD4+ and T-CD8+ cells after prophylactic DC protocol; format: in vivo, mice
Experimental: On day 14, mice were inoculated i.v. with B16F10.Nex2 melanoma tumor cells and on day 29, lungs, spleen and cervical and axillary lymph nodes were examined for CD3+ cells, and the proportion of T-CD4+ and T-CD8+ cells.
The lungs were incubated with 2 mg/ml of collagenase for 40 min at 37° C. before maceration. The cell suspension was incubated with cold hemolytic buffer for 1 min and then centrifuged. The pellet was suspended with RPMI medium and counted. 1×10^6 Cells of each group were processed and stained using the Treg Detection Kit (Miltenyi Biotec, Cambridge, USA). Lymphocytes were characterized using anti-CD4 (FITC), anti-CD25 (PE) and anti-Foxp3 (APC). Samples were analyzed by flow cytometry using FACSCantoII (Becton Dickinson, San Jose, Calif., USA). Acquired data were analyzed using the FlowJo V10 (TreeStar Inc., Ashland, Oreg., USA). The percentages of Foxp3^+ in CD4^+CD25^+ lymphocytes are indicated.
The cell suspension was incubated with cold hemolytic buffer for 1 min and then centrifuged. The pellet was suspended with RPMI medium and counted. 1×10^6 Cells of each group were stained with anti-CD3 (PE) and anti-CD4 (FITC) or anti-CD3 (PE) and anti-CD8 (FITC). All antibodies used were purchase from Miltenyi Biotec, Cambridge, USA. Samples were analyzed by flow cytometry using FACSCantoII (Becton Dickinson, San Jose, Calif., USA). Acquired data were analyzed using the FlowJo V10 (TreeStar Inc., Ashland, Oreg., USA). The percentages of CD4^+ or CD8^+ in CD3^+ lymphocytes are indicated.

B16F10-Nex2 cells = assay: Anti-melanoma antibodies in sera of treated mice; format: in vivo; conditions: 1/5 diluted sera; BSA treated or untreated tumor cells
[3] = tested on: B16F10-Nex2 melanoma cells; conditions: as determined in U.S. Pat. No. 9,193,797 B2; cited from earlier work
[4] = tested on: mo-DC obtained from cancer patients' monocytes; assay: Surface phenotype of mo-DC from cancer patients; format: cell-based, human
Experimental: Peripheral blood mononuclear cells (PBMCs) were isolated by centrifugation over Ficoll-Paque Plus (GE Healthcare). After a 2 h-incubation in plastic 6-well plates, non-adherent cells were removed from culture and adherent cells (monocytes) were cultivated for 7 days in RPMI-1640 culture medium (Gibco, Grand Island, N.Y., USA), supplemented with 10% FCS (Gibco) plus antibiotic-antimycotic (Gibco) and in the presence of GM-CSF (50 ng/ml—Peprotech, Mexico) and IL-4 (50 ng/ml—Peprotech). At day 5 of culture TNF-α (50 ng/ml; Peprotech, Mexico) was added for mo-DC maturation.
Human cells were analyzed in a similar manner, but staining was performed in BSA-PBS, without EDTA. Antibodies against CD11c, CD14, CD80, CD83, CD86, HLA-ABC, HLA-DR, CCR7, PD-L1, conjugated with different fluorochromes and live/dead labeling (Molecular Probes, Oregon, USA) were used. Acquisition was performed in a FACSCanto II analyzer (BD Biosciences) and analyzed with the FlowJo Software X.10.07r2 (Tree Star).
Since it is well known that mo-DC from cancer patients can be functionally biased, but are not always so, the patients were separated into two groups, according to their mo-DC ability to induce allogeneic T cell proliferation. Patients whose mo-DC induced less than 35% of the phytohemagglutinin A (PHA)-induced response constituted one group (“defective”) and those whose mo-DC induced a response higher than 35% of the PHA response, the other (“normal”).

[5] = prophylactic protocol with peptide-stimulated DCs

[CARGETARATFAYWGQGC], NH2 (C-C) [Rb9]
CD40 expression [1]: regulated CD40 expression
expression of CD80 and CD86 ([1]; Rb9 mainly at 50 μg/ml): significantly stimulated
T-CD4+ and T-CD8+ effector cells [2, 5]: increased T-CD4+ and T-CD8+ effector cells
Tregs (FoxP3+) [2, 5]: reduced Tregs
proportion of T-CD8+ to T-CD4+ cells ([2]; spleen and lymph nodes (except lungs), day 29, DCs stimulated by peptide): T-CD8+ cells greatly predominated over T-CD4+ effector cells
reactivity of sera with B16F10-Nex2 cells, i.d. relative to i.p. administration (B16F10-Nex2 cells): 4-5 times
in vivo protection against metastatic melanoma by CDRs of RebMab200 [3]: displayed this in vivo protection
effects on surface phenotype of cancer patients' mo-DC ([4]; all patients): heterogeneous
effect on phenotype (differentiation, maturation) of "defective" mo-DC ([4]; patients whose mo-DC induced less than 35% of the PHA-induced response): clearly affected the phenotype
effect on phenotype of "normal" mo-DC ([4]; patients whose mo-DC induced more than 35% of the PHA response): little effect
